Counter-ions that a name gives are not always drawn.
Assays:
Assay type in all cases: functional
[1] = tested on: HCT-15; experiment: Cytotoxicity against human HCT15 cells assessed as cell growth inhibition measured after 48 hrs by SRB assay; details: HCT-15, 48 h
[2] = tested on: NUGC-3; experiment: Cytotoxicity against human NUGC3 cells assessed as cell growth inhibition measured after 48 hrs by SRB assay; details: NUGC-3, 48 h
[3] = tested on: NCI-H23; experiment: Cytotoxicity against human NCI-H23 cells assessed as cell growth inhibition measured after 48 hrs by SRB assay; details: NCI-H23, 48 h
[4] = tested on: ACHN; experiment: Cytotoxicity against human ACHN cells assessed as cell growth inhibition measured after 48 hrs by SRB assay
[5] = tested on: PC-3; experiment: Cytotoxicity against human PC3 cells assessed as cell growth inhibition measured after 48 hrs by SRB assay; details: PC-3, 48 h
[6] = tested on: MDA-MB-231; experiment: Cytotoxicity against human MDA-MB-231 cells assessed as cell growth inhibition measured after 48 hrs by SRB assay; details: MDA-MB-231, 48 h

Q: Which GI50 [1] does the source give for `COc1cccc2c1C(=O)c1c(O)c3c(c(O)c1C2=O)C[C@@](O)(C(=O)CO)C[C@@H]3O[C@H]1C[C@H](N)[C@H](O)[C@H](C)O1` [DOXORUBICIN HYDROCHLORIDE] here?
A: 0.14 µM

Q: What about the GI50 [2] of the same compound?
A: 0.15 µM

Q: What about the GI50 [3] of the same compound?
A: 0.14 µM

Q: And the GI50 [4]?
A: 0.13 µM

Q: What about the GI50 [5] of the same compound?
A: 0.14 µM

Q: What about the GI50 [6] of the same compound?
A: 0.15 µM

Q: `CC[C@H](C)[C@@H](CCCCCCC/C=C/C=C/CCc1cc(O)cc(O)c1Cc1c(O)cc(C)oc1=O)O[C@H]1O[C@H](CO)[C@@H](O)[C@H](O)[C@H]1O` was tested. Which GI50 [1] did it give?
A: > 50 µM

Q: What about the GI50 [2] of the same compound?
A: > 50 µM

Q: What about the GI50 [3] of the same compound?
A: > 50 µM

Q: And the GI50 [4]?
A: > 50 µM

Q: What about the GI50 [5] of the same compound?
A: > 50 µM

Q: What about the GI50 [6] of the same compound?
A: > 50 µM

Q: How did the GI50 [1] turn out when `CC[C@H](C)[C@@H](CCCCCCC/C=C/C=C/CCc1cc(O)cc(O)c1)O[C@H]1O[C@H](CO)[C@@H](O)[C@H](O)[C@H]1O` was run?
A: 19 µM

Q: What about the GI50 [2] of the same compound?
A: 9.3 µM

Q: What about the GI50 [3] of the same compound?
A: 24 µM

Q: What about the GI50 [4] of the same compound?
A: 31 µM

Q: What about the GI50 [5] of the same compound?
A: 21 µM

Q: And the GI50 [6]?
A: 25 µM
